Assay results published in ChEMBL document CHEMBL3044789, “Comparing weed and crop seedling response to pre-emergence pendimethalin application in Corchorus olitorius and Abelmoschus esculentus” (Crop Prot, 2006).

Key:
[1] = tested on: Talinum fruticosum; test: Herbicidal activity against Talinum fruticosum in Corchorus olitorius plots assessed as weed cover at 0.99 kg a.i/ha after 4 weeks (reference value: 20.1+/- 0.57 %); type: functional
[2] = tested on: Synedrella nodiflora; test: Herbicidal activity against Synedrella nodiflora in Abelmoschus esculentus plots assessed as weed cover at 0.99 kg a.i/ha after 2 weeks (reference value: 63.5 +/- 0.29 %); type: functional
[3] = tested on: Ageratum conyzoides; test: Herbicidal activity against Ageratum conyzoides in Abelmoschus esculentus plots assessed as minor weed growth at 1.32 kg a.i/ha after 2 weeks; type: functional
[4] = tested on: Talinum fruticosum; test: Herbicidal activity against Talinum fruticosum in Corchorus olitorius plots assessed as weed cover at 0.99 kg a.i/ha after 7 weeks (reference value: 1.7 +/- 0.56 %); type: functional
[5] = tested on: Calopogonium mucunoides; test: Herbicidal activity against Calopogonium mucunoides in Abelmoschus esculentus plots assessed as major weed growth at 0.99 kg a.i/ha after 2 weeks; type: functional
[6] = tested on: Synedrella nodiflora; test: Herbicidal activity against Synedrella nodiflora in Abelmoschus esculentus plots assessed as weed cover at 0.99 kg a.i/ha after 4 weeks (reference value: 22.6 +/- 0.49 %); type: functional
[7] = tested on: Corchorus olitorius; test: Phytotoxicity in Corchorus olitorius assessed as root length at 1.32 kg a.i/ha treated to soil after 7 weeks (reference value: 16.9 +/- 0.09 mm); type: organism-based; conditions: in vivo, other, 1176 h
[8] = tested on: Euphorbia heterophylla; test: Herbicidal activity against Euphorbia heterophylla in Corchorus olitorius plots assessed as weed cover at 1.32 kg a.i/ha after 4 weeks (reference value: 20.1+/- 0.57 %); type: functional
[9] = tested on: Ageratum conyzoides; test: Herbicidal activity against Ageratum conyzoides in Corchorus olitorius plots assessed as weed recovery at 1.32 kg a.i/ha after 2 weeks (reference value: 78.3 +/- 0.74 %); type: functional
[10] = tested on: Synedrella nodiflora; test: Herbicidal activity against Synedrella nodiflora in Abelmoschus esculentus plots assessed as weed cover at 0.33 kg a.i/ha after 7 weeks (reference value: 14.7 +/- 0.46 %); type: functional
[11] = tested on: Euphorbia heterophylla; test: Herbicidal activity against Euphorbia heterophylla in Abelmoschus esculentus plots assessed as weed cover at 0.99 kg a.i/ha after 7 weeks (reference value: 14.7 +/- 0.46 %); type: functional
[12] = tested on: Calopogonium mucunoides; test: Herbicidal activity against Calopogonium mucunoides in Abelmoschus esculentus plots assessed as weed cover at 0.66 kg a.i/ha after 7 weeks (reference value: 14.7 +/- 0.46 %); type: functional
[13] = tested on: Chromolaena odorata; test: Herbicidal activity against Chromolaena odorata in Corchorus olitorius plots assessed as weed cover at 0.99 kg a.i/ha after 4 weeks (reference value: 20.1+/- 0.57 %); type: functional
[14] = tested on: Corchorus olitorius; test: Phytotoxicity in Corchorus olitorius assessed as root length at 1.32 kg a.i/ha applied as solution after 7 weeks (reference value: 14.3 +/- 1.06 mm); type: organism-based; conditions: in vivo, other, 1176 h
[15] = tested on: Abelmoschus esculentus; test: Phytotoxicity in Abelmoschus esculentus assessed as shoot length at 0.99 kg a.i/ha treated to soil after 7 weeks (reference value: 8.5 +/- 0.34 mm); type: organism-based; conditions: in vivo, other, 1176 h
[16] = tested on: Ageratum conyzoides; test: Herbicidal activity against Ageratum conyzoides in Corchorus olitorius plots assessed as weed cover at 0.33 kg a.i/ha after 4 weeks (reference value: 20.1+/- 0.57 %); type: functional
[17] = tested on: Rottboellia cochinchinensis; test: Herbicidal activity against Rottboellia cochinchinensis in Abelmoschus esculentus plots assessed as weed cover at 0.33 kg a.i/ha after 7 weeks (reference value: 14.7 +/- 0.46 %); type: functional
[18] = tested on: Ageratum conyzoides; test: Herbicidal activity against Ageratum conyzoides in Abelmoschus esculentus plots assessed as weed cover at 1.32 kg a.i/ha after 4 weeks (reference value: 22.6 +/- 0.49 %); type: functional
[19] = tested on: Synedrella nodiflora; test: Herbicidal activity against Synedrella nodiflora in Corchorus olitorius plots assessed as weed cover at 0.33 kg a.i/ha after 2 weeks (reference value: 81.7 +/- 0.43 %); type: functional
[20] = tested on: Synedrella nodiflora; test: Herbicidal activity against Synedrella nodiflora in Abelmoschus esculentus plots assessed as weed cover at 0.66 kg a.i/ha after 2 weeks (reference value: 63.5 +/- 0.29 %); type: functional
[21] = tested on: Calopogonium mucunoides; test: Herbicidal activity against Calopogonium mucunoides in Corchorus olitorius plots assessed as weed cover at 0.33 kg a.i/ha after 7 weeks (reference value: 1.7 +/- 0.56 %); type: functional
[22] = tested on: Chromolaena odorata; test: Herbicidal activity against Chromolaena odorata in Corchorus olitorius plots assessed as weed cover at 0.33 kg a.i/ha after 2 weeks (reference value: 81.7 +/- 0.43 %); type: functional
[23] = tested on: Chromolaena odorata; test: Herbicidal activity against Chromolaena odorata in Corchorus olitorius plots assessed as weed cover at 1.32 kg a.i/ha after 4 weeks (reference value: 20.1+/- 0.57 %); type: functional
[24] = tested on: Euphorbia heterophylla; test: Herbicidal activity against Euphorbia heterophylla in Corchorus olitorius plots assessed as weed recovery at 1.32 kg a.i/ha after 2 weeks (reference value: 78.3 +/- 0.74 %); type: functional
[25] = tested on: Mimosa pudica; test: Herbicidal activity against Mimosa pudica in Abelmoschus esculentus plots assessed as weed cover at 0.33 kg a.i/ha after 4 weeks (reference value: 22.6 +/- 0.49 %); type: functional
[26] = tested on: Abelmoschus esculentus; test: Phytotoxicity in Abelmoschus esculentus assessed as root length at 0.66 kg a.i/ha applied as solution after 7 weeks (reference value: 23 +/- 0.34 mm); type: organism-based; conditions: in vivo, other, 1176 h
[27] = tested on: Abelmoschus esculentus; test: Phytotoxicity in Abelmoschus esculentus assessed as root length at 0.33 kg a.i/ha applied as solution after 7 weeks (reference value: 23 +/- 0.34 mm); type: organism-based; conditions: in vivo, other, 1176 h
[28] = tested on: Rottboellia cochinchinensis; test: Herbicidal activity against Rottboellia cochinchinensis in Abelmoschus esculentus plots assessed as weed recovery at 0.33 kg a.i/ha after 2 weeks (reference value: 60.1 +/- 0.46 %); type: functional
[29] = tested on: Synedrella nodiflora; test: Herbicidal activity against Synedrella nodiflora in Corchorus olitorius plots assessed as weed recovery at 0.99 kg a.i/ha after 2 weeks (reference value: 78.3 +/- 0.74 %); type: functional
[30] = tested on: Corchorus olitorius; test: Phytotoxicity in Corchorus olitorius assessed as shoot length at 0.33 kg a.i/ha applied as solution after 7 weeks (reference value: 22.9 +/- 0.8 mm); type: organism-based; conditions: in vivo, other, 1176 h
[31] = tested on: Euphorbia heterophylla; test: Herbicidal activity against Euphorbia heterophylla in Abelmoschus esculentus plots assessed as major weed growth at 1.32 kg a.i/ha after 2 weeks; type: functional
[32] = tested on: Abelmoschus esculentus; test: Phytotoxicity in Abelmoschus esculentus assessed as seed germination at 0.99 kg a.i/ha applied as solution after 7 weeks (reference value: 85.7 +/- 0.36 %); type: organism-based; conditions: in vivo, other, 1176 h
[33] = tested on: Corchorus olitorius; test: Phytotoxicity in Corchorus olitorius assessed as root length at 0.99 kg a.i/ha treated to soil after 7 weeks (reference value: 16.9 +/- 0.09 mm); type: organism-based; conditions: in vivo, other, 1176 h
[34] = tested on: Corchorus olitorius; test: Phytotoxicity in Corchorus olitorius assessed as crop seedling injury at 1.32 kg a.i/ha after 2 weeks relative to untreated control; type: organism-based; conditions: in vivo, 336 h
[35] = tested on: Calopogonium mucunoides; test: Herbicidal activity against Calopogonium mucunoides in Abelmoschus esculentus plots assessed as major weed growth at 0.33 kg a.i/ha after 2 weeks; type: functional
[36] = tested on: Calopogonium mucunoides; test: Herbicidal activity against Calopogonium mucunoides in Abelmoschus esculentus plots assessed as weed recovery at 0.99 kg a.i/ha after 2 weeks (reference value: 60.1 +/- 0.46 %); type: functional

CCC(CC)Nc1c([N+](=O)[O-])cc(C)c(C)c1[N+](=O)[O-] [PENDIMETHALIN]
Activity [1]: 48.3%
Activity [2]: 47.9%
Activity [3]: 1 /m2
Activity [4]: 95%
Activity [5]: 31 /m2
Activity [6]: 39.2%
Activity [7]: 14.7 mm
Activity [8]: 33.3%
Activity [9]: 13.3%
Activity [10]: 90%
Activity [11]: 83.9%
Activity [12]: 90%
Activity [13]: 48.3%
Activity [14]: 2.4 mm
Activity [15]: 5.6 mm
Activity [16]: 73.3%
Activity [17]: 90%
Activity [18]: 36.2%
Activity [19]: 63.3%
Activity [20]: 50.8%
Activity [21]: 100%
Activity [22]: 63.3%
Activity [23]: 33.3%
Activity [24]: 13.3%
Activity [25]: 53.8%
Activity [26]: 11.8 mm
Activity [27]: 11.7 mm
Activity [28]: 39.2%
Activity [29]: 21.7%
Activity [30]: 7 mm
Activity [31]: 31 /m2
Activity [32]: 41.1%
Activity [33]: 16.4 mm
Activity [34]: 76.7%
Activity [35]: 31 /m2
Activity [36]: 36.2%
